Test [1] addresses Ribosomal protein S6 kinase alpha-1 (Homo sapiens, UniProt Q15418).
The target in test [2] is DnaJ homolog subfamily A member 1 (Homo sapiens, UniProt P31689).
Test [3] concerns the target U5 small nuclear ribonucleoprotein 200 kDa helicase (Homo sapiens, UniProt O75643).
Test [4] deals with Mitogen-activated protein kinase kinase kinase kinase 1 (Homo sapiens, UniProt Q92918).
Test [5] has as its target T1, ATP-dependent RNA helicase DDX1 (Homo sapiens, UniProt Q92499).
T1 sequence (Q92499 whole entry): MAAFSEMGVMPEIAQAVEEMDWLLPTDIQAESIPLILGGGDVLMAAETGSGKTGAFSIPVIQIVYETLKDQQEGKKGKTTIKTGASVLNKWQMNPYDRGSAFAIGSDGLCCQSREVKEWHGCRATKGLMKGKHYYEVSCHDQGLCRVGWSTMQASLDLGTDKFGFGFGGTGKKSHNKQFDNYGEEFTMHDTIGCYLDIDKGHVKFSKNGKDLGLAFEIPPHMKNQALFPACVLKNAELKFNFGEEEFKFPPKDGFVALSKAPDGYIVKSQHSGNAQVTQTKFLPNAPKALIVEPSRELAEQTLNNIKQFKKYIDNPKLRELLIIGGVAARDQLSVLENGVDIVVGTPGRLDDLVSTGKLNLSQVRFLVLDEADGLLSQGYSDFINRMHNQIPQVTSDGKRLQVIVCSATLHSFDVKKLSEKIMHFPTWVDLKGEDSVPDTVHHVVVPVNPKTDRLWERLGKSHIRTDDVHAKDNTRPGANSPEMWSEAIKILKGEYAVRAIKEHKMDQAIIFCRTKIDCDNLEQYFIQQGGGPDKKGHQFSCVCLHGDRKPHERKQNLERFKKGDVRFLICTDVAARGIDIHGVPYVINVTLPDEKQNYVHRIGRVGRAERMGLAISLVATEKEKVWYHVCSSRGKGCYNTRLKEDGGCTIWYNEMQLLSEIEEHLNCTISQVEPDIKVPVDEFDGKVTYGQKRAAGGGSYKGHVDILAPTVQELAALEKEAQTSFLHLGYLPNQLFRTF

Test [6] deals with T2, MAP kinase-activated protein kinase 5 (Homo sapiens, UniProt Q8IW41).
T2 sequence (Q8IW41 whole entry): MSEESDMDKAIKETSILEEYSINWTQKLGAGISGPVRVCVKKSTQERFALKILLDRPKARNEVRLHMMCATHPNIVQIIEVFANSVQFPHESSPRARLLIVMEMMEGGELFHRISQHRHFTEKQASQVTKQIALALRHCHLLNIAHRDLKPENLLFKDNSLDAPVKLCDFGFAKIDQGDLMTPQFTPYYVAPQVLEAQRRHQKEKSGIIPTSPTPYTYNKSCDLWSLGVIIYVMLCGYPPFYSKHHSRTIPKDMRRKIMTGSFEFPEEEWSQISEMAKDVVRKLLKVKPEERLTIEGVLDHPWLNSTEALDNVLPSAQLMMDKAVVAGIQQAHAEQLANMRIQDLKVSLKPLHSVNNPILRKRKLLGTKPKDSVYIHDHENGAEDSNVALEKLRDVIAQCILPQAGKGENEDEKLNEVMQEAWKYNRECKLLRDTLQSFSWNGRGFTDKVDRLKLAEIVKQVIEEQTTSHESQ

The target of test [7] is T3, Very long-chain specific acyl-CoA dehydrogenase, mitochondrial (Homo sapiens, UniProt P49748).
T3 sequence (P49748 whole entry): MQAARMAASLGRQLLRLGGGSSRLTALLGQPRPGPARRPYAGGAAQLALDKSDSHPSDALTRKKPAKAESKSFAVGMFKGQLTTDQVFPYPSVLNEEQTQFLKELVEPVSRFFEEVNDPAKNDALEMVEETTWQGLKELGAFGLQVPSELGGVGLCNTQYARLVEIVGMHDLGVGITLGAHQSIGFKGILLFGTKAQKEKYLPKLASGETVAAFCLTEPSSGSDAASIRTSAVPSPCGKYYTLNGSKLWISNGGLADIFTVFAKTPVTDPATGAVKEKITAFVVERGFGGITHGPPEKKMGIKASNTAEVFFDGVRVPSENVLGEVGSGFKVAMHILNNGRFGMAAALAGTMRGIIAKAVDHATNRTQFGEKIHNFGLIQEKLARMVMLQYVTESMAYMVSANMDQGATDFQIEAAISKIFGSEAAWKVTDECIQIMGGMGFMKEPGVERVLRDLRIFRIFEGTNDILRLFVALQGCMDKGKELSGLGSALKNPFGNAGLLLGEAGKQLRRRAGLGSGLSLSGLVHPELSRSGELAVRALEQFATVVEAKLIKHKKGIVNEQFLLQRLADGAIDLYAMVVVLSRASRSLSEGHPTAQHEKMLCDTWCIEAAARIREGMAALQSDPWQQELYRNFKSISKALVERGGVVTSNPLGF

Test [8] addresses Mitogen-activated protein kinase 7 (Homo sapiens, UniProt Q13164).
Test [9] concerns the target T4, Mitogen-activated protein kinase kinase kinase kinase 2 (Homo sapiens, UniProt Q12851).
T4 sequence (Q12851 whole entry): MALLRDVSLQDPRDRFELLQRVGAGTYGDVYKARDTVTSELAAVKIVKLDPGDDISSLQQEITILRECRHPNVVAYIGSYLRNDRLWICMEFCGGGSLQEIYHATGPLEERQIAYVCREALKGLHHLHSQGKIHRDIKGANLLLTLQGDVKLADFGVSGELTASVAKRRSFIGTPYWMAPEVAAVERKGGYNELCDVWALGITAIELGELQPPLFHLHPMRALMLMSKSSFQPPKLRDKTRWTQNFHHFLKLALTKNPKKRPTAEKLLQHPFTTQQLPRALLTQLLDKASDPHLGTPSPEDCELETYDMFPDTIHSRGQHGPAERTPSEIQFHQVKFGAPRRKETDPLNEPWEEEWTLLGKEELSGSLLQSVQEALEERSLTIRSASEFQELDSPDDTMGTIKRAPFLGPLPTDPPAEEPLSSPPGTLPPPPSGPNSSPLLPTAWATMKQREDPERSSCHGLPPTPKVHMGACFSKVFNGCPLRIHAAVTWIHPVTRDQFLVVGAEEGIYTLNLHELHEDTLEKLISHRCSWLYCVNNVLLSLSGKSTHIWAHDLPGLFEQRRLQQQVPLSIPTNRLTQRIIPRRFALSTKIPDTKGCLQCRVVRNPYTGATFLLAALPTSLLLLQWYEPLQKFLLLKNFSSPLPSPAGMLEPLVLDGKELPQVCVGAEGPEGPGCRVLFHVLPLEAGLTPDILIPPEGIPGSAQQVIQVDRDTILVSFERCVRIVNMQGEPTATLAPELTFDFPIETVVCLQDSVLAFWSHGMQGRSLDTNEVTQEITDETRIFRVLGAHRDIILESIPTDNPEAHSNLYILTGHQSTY

Active and inactive are the calls of the source. Bounds are passed on as bounds.
Note: in the data inactive means no Kd found up to 30 µM.

Chain of DnaJ homolog subfamily A member 1 (P31689 whole entry): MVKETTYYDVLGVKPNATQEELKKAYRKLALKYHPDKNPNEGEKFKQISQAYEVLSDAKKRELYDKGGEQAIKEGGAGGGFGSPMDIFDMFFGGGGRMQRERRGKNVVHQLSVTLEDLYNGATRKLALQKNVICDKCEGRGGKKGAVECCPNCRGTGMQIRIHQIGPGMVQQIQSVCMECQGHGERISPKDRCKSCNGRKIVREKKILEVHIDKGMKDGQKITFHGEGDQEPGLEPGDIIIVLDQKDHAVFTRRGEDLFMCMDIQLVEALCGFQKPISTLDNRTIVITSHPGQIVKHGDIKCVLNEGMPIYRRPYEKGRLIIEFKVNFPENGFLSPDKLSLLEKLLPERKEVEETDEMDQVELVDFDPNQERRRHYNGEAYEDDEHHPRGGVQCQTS
Chain of Mitogen-activated protein kinase kinase kinase kinase 1 (Q92918 whole entry): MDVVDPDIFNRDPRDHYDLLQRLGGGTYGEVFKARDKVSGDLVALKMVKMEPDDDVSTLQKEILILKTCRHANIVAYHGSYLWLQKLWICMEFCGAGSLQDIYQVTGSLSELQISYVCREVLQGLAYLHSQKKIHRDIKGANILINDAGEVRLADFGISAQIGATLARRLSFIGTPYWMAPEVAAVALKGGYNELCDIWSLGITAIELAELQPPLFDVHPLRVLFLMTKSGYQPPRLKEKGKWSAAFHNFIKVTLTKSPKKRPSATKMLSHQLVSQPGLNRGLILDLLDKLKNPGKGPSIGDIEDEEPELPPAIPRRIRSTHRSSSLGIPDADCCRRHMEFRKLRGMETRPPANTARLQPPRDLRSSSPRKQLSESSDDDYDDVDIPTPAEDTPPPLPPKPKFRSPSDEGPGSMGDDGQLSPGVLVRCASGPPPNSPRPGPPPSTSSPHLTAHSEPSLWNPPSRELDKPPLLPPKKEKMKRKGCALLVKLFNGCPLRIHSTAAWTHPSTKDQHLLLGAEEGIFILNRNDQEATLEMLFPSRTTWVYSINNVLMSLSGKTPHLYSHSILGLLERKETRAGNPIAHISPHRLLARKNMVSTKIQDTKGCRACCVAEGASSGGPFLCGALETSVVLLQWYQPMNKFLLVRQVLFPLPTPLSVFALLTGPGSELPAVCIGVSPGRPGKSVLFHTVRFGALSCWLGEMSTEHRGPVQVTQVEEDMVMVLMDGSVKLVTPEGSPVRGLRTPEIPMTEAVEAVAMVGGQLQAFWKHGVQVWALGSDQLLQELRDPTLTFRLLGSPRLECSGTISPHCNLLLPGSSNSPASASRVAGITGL
Chain of Ribosomal protein S6 kinase alpha-1 (Q15418 whole entry): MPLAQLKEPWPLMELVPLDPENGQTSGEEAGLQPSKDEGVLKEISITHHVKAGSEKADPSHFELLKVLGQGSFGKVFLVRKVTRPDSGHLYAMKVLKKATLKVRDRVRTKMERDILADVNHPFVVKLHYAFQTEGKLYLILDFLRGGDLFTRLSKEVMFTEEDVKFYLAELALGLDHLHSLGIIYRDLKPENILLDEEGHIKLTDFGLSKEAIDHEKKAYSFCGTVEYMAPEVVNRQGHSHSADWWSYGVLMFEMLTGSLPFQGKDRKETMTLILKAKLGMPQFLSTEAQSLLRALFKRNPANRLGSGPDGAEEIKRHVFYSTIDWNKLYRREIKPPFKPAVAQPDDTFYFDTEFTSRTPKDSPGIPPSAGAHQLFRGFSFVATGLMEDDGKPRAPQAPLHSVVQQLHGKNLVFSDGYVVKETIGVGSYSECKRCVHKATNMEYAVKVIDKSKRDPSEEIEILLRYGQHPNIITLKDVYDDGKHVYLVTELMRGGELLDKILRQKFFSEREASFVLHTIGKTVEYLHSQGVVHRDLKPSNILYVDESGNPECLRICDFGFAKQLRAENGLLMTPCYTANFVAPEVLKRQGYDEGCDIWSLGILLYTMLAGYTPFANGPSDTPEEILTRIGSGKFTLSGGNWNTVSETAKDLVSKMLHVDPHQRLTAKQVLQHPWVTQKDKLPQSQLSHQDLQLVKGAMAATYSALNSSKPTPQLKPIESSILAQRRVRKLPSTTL
Chain of U5 small nuclear ribonucleoprotein 200 kDa helicase (O75643 whole entry): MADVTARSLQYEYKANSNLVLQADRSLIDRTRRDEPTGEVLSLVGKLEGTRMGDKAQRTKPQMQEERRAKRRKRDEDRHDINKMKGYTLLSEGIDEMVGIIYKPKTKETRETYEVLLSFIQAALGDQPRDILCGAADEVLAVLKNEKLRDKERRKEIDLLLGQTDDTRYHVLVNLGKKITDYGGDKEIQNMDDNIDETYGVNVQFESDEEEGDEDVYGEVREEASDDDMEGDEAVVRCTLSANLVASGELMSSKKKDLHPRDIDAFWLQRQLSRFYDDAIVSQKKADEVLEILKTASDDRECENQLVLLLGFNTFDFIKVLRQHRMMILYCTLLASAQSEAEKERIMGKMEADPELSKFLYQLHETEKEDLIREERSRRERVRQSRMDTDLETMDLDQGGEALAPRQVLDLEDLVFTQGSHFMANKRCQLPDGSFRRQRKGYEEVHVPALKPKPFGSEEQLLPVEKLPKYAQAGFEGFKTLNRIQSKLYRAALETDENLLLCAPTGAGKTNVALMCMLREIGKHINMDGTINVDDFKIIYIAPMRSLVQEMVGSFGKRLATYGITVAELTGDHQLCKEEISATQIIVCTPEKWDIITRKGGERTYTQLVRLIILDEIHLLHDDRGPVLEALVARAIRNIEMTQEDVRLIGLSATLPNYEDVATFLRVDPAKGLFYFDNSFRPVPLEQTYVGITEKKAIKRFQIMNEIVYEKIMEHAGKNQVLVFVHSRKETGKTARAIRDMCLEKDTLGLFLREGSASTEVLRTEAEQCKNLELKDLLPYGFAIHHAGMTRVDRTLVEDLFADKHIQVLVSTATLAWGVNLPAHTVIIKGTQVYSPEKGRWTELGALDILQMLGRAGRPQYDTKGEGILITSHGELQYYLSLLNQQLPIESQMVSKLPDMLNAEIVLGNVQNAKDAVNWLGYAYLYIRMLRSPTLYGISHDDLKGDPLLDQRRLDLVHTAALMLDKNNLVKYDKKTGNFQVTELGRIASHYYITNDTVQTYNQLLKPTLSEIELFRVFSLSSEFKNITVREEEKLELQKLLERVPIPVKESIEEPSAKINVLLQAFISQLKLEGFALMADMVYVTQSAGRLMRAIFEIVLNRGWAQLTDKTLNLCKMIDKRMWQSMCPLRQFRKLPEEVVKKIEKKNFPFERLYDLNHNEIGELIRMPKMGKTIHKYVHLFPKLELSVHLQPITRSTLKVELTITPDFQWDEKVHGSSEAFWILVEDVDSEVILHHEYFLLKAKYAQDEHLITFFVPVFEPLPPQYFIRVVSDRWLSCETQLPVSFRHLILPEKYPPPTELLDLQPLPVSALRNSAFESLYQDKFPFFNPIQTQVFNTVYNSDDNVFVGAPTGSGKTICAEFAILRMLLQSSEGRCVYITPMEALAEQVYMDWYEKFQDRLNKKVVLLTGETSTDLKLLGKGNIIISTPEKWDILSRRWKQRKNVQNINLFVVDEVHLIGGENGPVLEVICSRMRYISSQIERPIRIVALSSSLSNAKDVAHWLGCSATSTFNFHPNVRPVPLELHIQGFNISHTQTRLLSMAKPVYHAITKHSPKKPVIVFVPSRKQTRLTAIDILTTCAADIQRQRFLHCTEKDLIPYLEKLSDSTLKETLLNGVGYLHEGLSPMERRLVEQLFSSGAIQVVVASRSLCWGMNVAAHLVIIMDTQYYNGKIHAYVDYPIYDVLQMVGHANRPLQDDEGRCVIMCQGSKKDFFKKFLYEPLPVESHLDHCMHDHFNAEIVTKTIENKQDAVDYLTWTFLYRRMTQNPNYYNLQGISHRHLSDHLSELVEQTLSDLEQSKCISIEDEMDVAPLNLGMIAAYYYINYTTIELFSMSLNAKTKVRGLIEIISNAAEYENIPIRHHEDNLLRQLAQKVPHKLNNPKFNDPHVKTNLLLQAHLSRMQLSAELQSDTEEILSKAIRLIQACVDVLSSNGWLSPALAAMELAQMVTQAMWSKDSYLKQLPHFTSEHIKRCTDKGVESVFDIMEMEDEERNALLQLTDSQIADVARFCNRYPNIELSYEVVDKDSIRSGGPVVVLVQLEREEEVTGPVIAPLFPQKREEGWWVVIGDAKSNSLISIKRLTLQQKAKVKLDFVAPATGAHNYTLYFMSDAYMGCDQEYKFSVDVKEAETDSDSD
Chain of Mitogen-activated protein kinase 7 (Q13164 whole entry): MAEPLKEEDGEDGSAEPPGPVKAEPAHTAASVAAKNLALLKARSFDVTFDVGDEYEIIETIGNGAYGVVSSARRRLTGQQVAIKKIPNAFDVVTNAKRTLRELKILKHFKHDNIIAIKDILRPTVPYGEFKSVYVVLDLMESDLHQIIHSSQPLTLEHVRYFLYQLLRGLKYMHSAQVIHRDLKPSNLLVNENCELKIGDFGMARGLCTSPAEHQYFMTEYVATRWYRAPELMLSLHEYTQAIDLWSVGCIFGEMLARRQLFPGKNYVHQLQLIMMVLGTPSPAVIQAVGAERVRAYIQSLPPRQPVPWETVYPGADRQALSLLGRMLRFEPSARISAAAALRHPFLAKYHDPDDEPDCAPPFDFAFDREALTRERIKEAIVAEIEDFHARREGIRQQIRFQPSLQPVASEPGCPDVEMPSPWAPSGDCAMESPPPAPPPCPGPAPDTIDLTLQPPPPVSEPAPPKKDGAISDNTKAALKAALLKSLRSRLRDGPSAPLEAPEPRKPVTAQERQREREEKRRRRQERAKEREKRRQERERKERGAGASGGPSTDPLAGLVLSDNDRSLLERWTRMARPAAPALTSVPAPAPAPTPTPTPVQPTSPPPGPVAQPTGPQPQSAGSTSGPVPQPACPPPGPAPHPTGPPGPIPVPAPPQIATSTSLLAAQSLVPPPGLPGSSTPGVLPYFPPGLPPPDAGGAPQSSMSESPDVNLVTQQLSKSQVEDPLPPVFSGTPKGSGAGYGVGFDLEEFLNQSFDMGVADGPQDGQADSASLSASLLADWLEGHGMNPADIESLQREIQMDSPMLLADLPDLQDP

In the case of `C=CCn1c(=O)c2cnc(Nc3ccc(N4CCN(C)CC4)cc3)nc2n1-c1cccc(C(C)(C)O)n1` [ADAVOSERTIB], the Kd in [1], in test [2], in test [3], in [4], in test [5] and in test [6] was > 30 µM (inactive) in each case. Further, the Kd in test [7] and in test [8] was > 30 µM (inactive) throughout.

In the case of `CCOc1ccn(-c2ccc(F)cc2)c(=O)c1C(=O)Nc1ccc(Oc2ccnc(N)c2Cl)c(F)c1` [BMS-777607], the Kd in test [1], in [2], in test [3], in test [4], in test [5] and in test [6] was > 30 µM (inactive) each time. In addition, the Kd in test [7] and in test [8] was > 30 µM (inactive) throughout.

In the case of `CC1(C)CNc2cc(NC(=O)c3cccnc3NCc3ccncc3)ccc21` [MOTESANIB], the Kd in test [2], in [3], in [5] and in [7] was > 30 µM (inactive) in each case.

As to `COc1cc2c(N3CCN(C(=O)Nc4ccc(OC(C)C)cc4)CC3)ncnc2cc1OCCCN1CCCCC1` [TANDUTINIB], the Kd in [2], in test [5] and in [7] was > 30 µM (inactive) throughout.

`O=S(=O)(c1cccc2cnccc12)N1CCCNCC1` [FASUDIL]: the Kd in test [1], in test [2], in test [4], in [5], in [6] and in test [7] was > 30 µM (inactive) each time. Further, the Kd (as a rule, the equilibrium constant for the complex coming apart) in [8] is > 30 µM (inactive).

Consider `CCN(CCCOc1ccc2c(Nc3cc(CC(=O)Nc4cccc(F)c4)n[nH]3)ncnc2c1)CCOP(=O)(O)O` [BARASERTIB], for which the Kd in [1], in test [2], in test [3], in test [4], in test [5] and in [6] was > 30 µM (inactive) each time. The Kd in [7] and in test [8] was > 30 µM (inactive) in each case.

Turning to `CN(C)C/C=C/C(=O)Nc1cc2c(Nc3ccc(F)c(Cl)c3)ncnc2cc1O[C@H]1CCOC1` [AFATINIB], the Kd in test [2], in [3], in test [5] and in test [7] was > 30 µM (inactive) throughout.

Turning to `Cn1cnc2c(F)c(Nc3ccc(Br)cc3Cl)c(C(=O)NOCCO)cc21` [SELUMETINIB], the Kd in test [2], in test [3], in [5] and in test [7] was > 30 µM (inactive) each time.

As for `O=c1[nH]c([C@@H]2CCCN2)nc2c1oc1ccc(Cl)cc12`, the Kd in test [1], in test [2], in [3], in test [4], in test [9] and in test [6] was > 30 µM (inactive) throughout. In addition, in test [7], the Kd was > 30 µM (inactive).

With `CC(C)(O)CC(=O)NCCn1ccc2ncnc(Nc3ccc(Oc4cccc(C(F)(F)F)c4)c(Cl)c3)c21` [TAK-285], the Kd in test [1], in test [2], in [3], in test [4], in [5] and in test [9] was > 30 µM (inactive) each time. Also, the Kd in [6] and in test [7] was > 30 µM (inactive) each time.

In the case of `Cn1c(=O)n(-c2ccc(C(C)(C)C#N)cc2)c2c3cc(-c4cnc5ccccc5c4)ccc3ncc21` [DACTOLISIB], the Kd in test [1], in test [2], in [3], in test [4], in test [5] and in [6] was > 30 µM (inactive) in each case. Moreover, the Kd in [7] and in [8] was > 30 µM (inactive) each time.

On to `COc1cc2c(Oc3ccc4[nH]c(C)cc4c3F)ncnc2cc1OCCCN1CCCC1` [CEDIRANIB], for which the Kd in [2], in test [3], in test [5] and in [7] was > 30 µM (inactive) in each case.

For `CN(c1ncccc1CNc1nc(Nc2ccc3c(c2)CC(=O)N3)ncc1C(F)(F)F)S(C)(=O)=O` [PF-00562271], the Kd in test [1] is > 30 µM (inactive); in test [2], > 30 µM (inactive); in [3], > 30 µM (inactive); in [4], 3.98 µM (active); in test [5] it was > 30 µM (inactive); in test [7], > 30 µM (inactive).

As for `C[C@@]1(C(=O)Nc2ccc(F)nc2)CCCN1c1nc(Nc2cc(C3CC3)n[nH]2)c2cccn2n1` [BMS-754807], the Kd in test [2], in test [3], in test [5] and in test [7] was > 30 µM (inactive) throughout.

On to `NC[C@@](O)(c1ccc(Cl)cc1)c1ccc(-c2cn[nH]c2)cc1` [AT-13148], for which the Kd in test [1], in test [2], in [3], in test [4], in test [5] and in test [9] was > 30 µM (inactive) throughout. Moreover, the Kd in test [6] and in test [7] was > 30 µM (inactive) throughout.

These data come from ChEMBL document CHEMBL3991601, “The target landscape of clinical kinase drugs” (Science, 2017).
